A word on the IC50: it is the concentration that gives 50% inhibition.

Each structure is given as a SMILES string. A value given as a limit tells only on which side of the number the result lay.

In the test the test system is IL-2 production. Description: Inhibition of IL-2 production in PHA-activated Jurkat cells (ELISA). Type of test: cell-based. To be noted: Homo sapiens, PHA 2.5 μg/mL, 20 hours, IL-2 ELISA. As for the experimental part:
Jurkat cells were placed in a 96 well plate (0.5 million cells per well in 1% FBS medium) then a test compound of this invention was added at different concentrations. After 10 minutes, the cells were activated with PHA (final concentration 2.5 μg/mL) and incubated for 20 hours at 37° C. under CO2. The final volume was 200 μL. Following incubation, the cells were centrifuged and the supernatants collected and stored at −70° C. prior to assaying for IL-2 production. A commercial ELISA kit (IL-2 Eli-pair, Diaclone Research, Besancon, France) was used to detect production of IL-2, from which dose response curves were obtained. The IC50 value was calculated as the concentration at which 50% of maximum IL-2 production after stimulation was inhibited versus a non-stimulation control.
In general terms: ELISA stands for enzyme-linked immunosorbent assay.

`CC(=O)Nc1ccc(C2=CCCCc3cc(NC(=O)c4c(F)cccc4F)ccc32)cc1` [Compound 9, 2,6-Difluoro-N-[5-(4-acetylamino-phenyl)-8,9-dihydro-7H-benzocyclohepten-2-yl]-benzamide] came in with an IC50 of 560 nM.
The same measure for `COC(=O)/C(C)=C1\CCCc2cc(NC(=O)c3c(F)cccc3F)ccc21` [Compound 2, 2-[6-(2,6-Difluoro-benzoylamino)-3,4-dihydro-2H-naphthalen-1-ylidene]-propionic acid methyl ester]: over 1000 nM; for `CC1=C(c2ccccc2)c2ccc(NC(=O)c3c(F)cccc3F)cc2CCC1` [Compound 7, 2,6-Difluoro-N-(5-phenyl-6-methyl-8,9-dihydro-7H-benzocyclohepten-2-yl)-benzamide]: 392 nM; for `C/C(C(=O)N1CCOCC1)=C1/CCCc2cc(NC(=O)c3c(F)cccc3F)ccc21` [Compound 3, 2,6-Difluoro-N-[5-(1-methyl-2-morpholin-4-yl-2-oxo-ethylidene)-5,6,7,8-tetrahydro-naphthalen-2-yl]-benzamide]: 18 nM.
For `C/C(C(=O)O)=C1/CCCc2cc(NC(=O)c3c(F)cccc3F)ccc21` [Compound 1, 2-[6-(2,6-Difluoro-benzoylamino)-3,4-dihydro-2H-naphthalen-1-ylidene]-propionic acid] the value was over 1000 nM.
Molecule `C/C(CO)=C1/CCCc2cc(NC(=O)c3c(F)cccc3F)ccc21` [Compound 5, 2,6-Difluoro-N-[5-(2-hydroxy-1-methyl-ethylidene)-5,6,7,8-tetrahydro-naphthalen-2-yl]-benzamide] registered an IC50 of over 1000 nM.
`O=C(Nc1ccc2c(c1)CCCC=C2c1ccccc1)c1c(F)cccc1F` [Compound 6, 2,6-Difluoro-N-(5-phenyl-8,9-dihydro-7H-benzocyclohepten-2-yl)-benzamide] returned an IC50 of 168 nM. This counts as sub-micromolar.
Turning to `Nc1ccc(C2=CCCCc3cc(NC(=O)c4c(F)cccc4F)ccc32)cc1` [Compound 8, 2,6-Difluoro-N-[5-(4-amino-phenyl)-8,9-dihydro-7H-benzocyclohepten-2-yl]-benzamide], inhibition was half-maximal at 146 nM (IC50).

(Values after patent US8809396B2, “Substituted fused-ring compounds for inflammation and immune-related uses” (Synta Pharmaceuticals Corp., priority 2007, dated 2014).)
